“Also recorded” adds a separate entry of the source.

Data set [1] is described as follows: Toxicity of intraperitoneal DAL in SCID mice. Type of data set: in vivo. To be noted: intraperitoneal doses of up to 100 mg/kg. The method, then:
A cell-based readout system was used for compound selection. For the cell-based screening, an optimal cell density of 10,000 breast cancer MDA-MB-231 cells/well was selected to produce the most prominent signal. The plated cells were incubated with each library compound, washed with PBS, and the Cell Titer-Glo (Promega) reagent was used to detect the number of cells remaining attached in each well. This ATP-based detection has a linear relationship between the luminescent signal and the number of cells per well. Of the 50,000 compounds screened, 86 library compounds (0.172% of screened compounds) were selected at 1.67 μM concentration for the second screening step. […] As a further test of toxicity, DAL was injected intraperitoneally at 100 mg/kg in SCID mice and signs of toxicity including cachexia, ruffled fur, diarrhea, anorexia, skin ulceration, and toxic death were monitored.
A screening strategy was developed to identify potential agents that target adhesion of endothelial cells or cancer cells to their substrate. […] The initial screening step quantified the number of cells remaining attached to their wells following incubation with each compound and subsequent washing steps. […] The agents that affect cell adhesion can be monitored through remodeling of actin filaments. […] Changes in actin assembly and cell shape after treatment with 12 compounds were determined. […]

A further data set deals with recombinant purified IDO (Homo sapiens, UniProt P14902). In words: Enzymatic assay with recombinant purified IDO. Type of data set: biochemical. On the procedure:
To determine whether DAL is an immuno-modulator, the effect of DAL on IDO activity was measured. To monitor IDO enzymatic activity, HEK 293 cells were engineered to express IDO and treated with DAL in a 10-dose IC50 mode with threefold serial dilutions. The IDO activity was analyzed by the presence of kynurenine (the first stable catabolite downstream of IDO) with a spectrophotometric assay (Katz et al., 2008; Littlejohn et al., 2000). […] Because DAL inhibits recombinant purified IDO in the enzymatic assay, it is likely that DAL physically interacts with IDO1, forming a complex that represses IDO1 activity. To elucidate a possible structural basis for this inhibition, comparative modeling and molecular docking were used (FIGS. 9A-9D). […] These residues are disordered in all existing IDO structures (Thackray et al., 2008); however, in the tryptophan-bound bacterial TDO structure, the corresponding loop is well-ordered and forms a “lid” on the binding pocket. Similar to human IDO1, bacterial TDO is a heme enzyme catalyzing the conversion of tryptophan into N-formyl-kynurenine. The binding site residues are strongly conserved between the two enzymes: in particular, the lid sequences share the common motif [K/R]GTGG[T/S]. It was therefore assessed that if lid closure may be a critical step for the efficient reaction catalysis by IDO. […]

The subject of a further data set is Rac1. Kind of data set: Rac1 protein level by western blot in HUVECs. As to conditions: HUVEC, 10 μM for 24 hours. Type of data set: cell-based, human. The method, then: HUVEC cells were treated with 10 μM of DAL for 24 hours and then lysed. A western blot with anti-human Rac1 antibody is shown on top panel while the bottom panel represents a loading control. […] To enhance ubiquitination events, HUVEC cells were pretreated with the proteasome inhibitors lactacystin (2.5 mM) or MG-132 (0.2 mM) for one hour and subsequently treated with DAL (10 μM) of DAL for 24 hours. Duolink in situ was used for the detection of ubiquitinated Rac1 in DAL treated and untreated HUVEC cells. For the two Duolink PLA probes, primary mouse antibodies raised against human Rac1 and primary rabbit anti-ubiquitin were used. Fluorescent spots represent ubiquitinated Rac1. The nuclei with additionally stained DAPI.
However, protein levels of Rac1 were reduced after DAL treatment (FIG. 6B). Next, it was assessed whether DAL can enhance Rac1 ubiquitination and therefore promote or speed up degradation (31-34). For the detection of Rac1 ubiquitination in HUVECs, Rac1-ubiquitin binding in situ was identified using a Duolink molecular proximity assay. In this assay, molecules thought to interact are targeted with fluorescent antibodies in situ, and individual interactions generate a signal detectable by microscopy only if secondary antibodies are located in close proximity to each other. […]

Data set [2] has as its system zebrafish caudal fin regenerating vessels. Kind of data set: Caudal fin amputation, blood vessel regeneration. Type of data set: in vivo. On the procedure:
For the regeneration experiments, caudal fins of zebrafish were amputated at approximately the 50% proximal-distal level (21). The amputated fish were kept in individual 250-ml fish tanks, and at least five fish were used in each group. Staging for normal blood vessel regeneration was carried out at 25° C. with TG(fli1:EGFP)y1 fish, with the same fin ray and vessels of each fish was photographed at different time intervals during the course of the time-lapse study.
To examine whether DAL has a similar antivascular effect on neovasculature in adult zebrafish, neovascularization was induced by amputating the caudal fin at the ˜50% proximal-distal level and fin rays and vessels were imaged from each fish over time. In control zebrafish caudal fins, amputated blood vessels healed their ends by 24 h post-amputation and then reconnected arteries and veins through anastomosis, with blood flow resuming at wound sites by 48 h after amputation (FIG. 2B).

recombinant purified IDO, sequence (P14902 whole entry): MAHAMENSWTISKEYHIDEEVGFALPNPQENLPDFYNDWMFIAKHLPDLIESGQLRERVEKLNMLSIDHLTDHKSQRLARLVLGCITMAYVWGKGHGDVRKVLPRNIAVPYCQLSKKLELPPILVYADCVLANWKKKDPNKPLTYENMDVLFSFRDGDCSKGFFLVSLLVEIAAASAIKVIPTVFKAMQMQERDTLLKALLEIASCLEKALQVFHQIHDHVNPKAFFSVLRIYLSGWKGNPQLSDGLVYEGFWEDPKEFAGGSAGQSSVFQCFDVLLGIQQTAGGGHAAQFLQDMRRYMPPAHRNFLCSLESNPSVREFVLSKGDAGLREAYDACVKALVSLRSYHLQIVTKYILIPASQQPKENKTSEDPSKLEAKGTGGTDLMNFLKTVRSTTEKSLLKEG

Turning to `CC1(C)C=CC2=C(O1)C(=O)c1ccccc1C2=O` [DAL, dehydro-alpha-lapachone], the “signs of toxicity (cachexia, ruffled fur, diarrhea, anorexia, skin ulceration, toxic death)” value in data set [1] is reported as “low toxicity; also recorded: no signs of toxicity”. Also, the “inhibition of recombinant purified IDO” value at recombinant purified IDO is on record as “inhibits”. Moreover, the “protein levels of Rac1” value with Rac1 is on record as “reduced; also recorded: decreases”. For the same compound, the “anastomotic bridges at the amputation plane” value in data set [2] (9 days after amputation) is on record as “did not find such bridges”. For the same compound, the “anastomosis and plexus formation of regenerating vessels” value in data set [2] (caudal fin after amputation) is “defects in anastomosis and plexus formation”.

The values above are taken from patent publication US20140161720A1, “TREATMENT OF ANGIOGENIC- OR VASCULAR-ASSOCIATED DISEASES” (THE GENERAL HOSPITAL CORPORATION, priority 2011, published 2014).
